Results as given in patent US7803930B2, “Antisense modulation of apolipoprotein B-expression” (Isis Pharmaceuticals, Inc., priority 2002, dated 2010).
Like-named read-outs stand apart in the source and are kept apart here.

Tests used:
[1] = type: in vivo, mouse; conditions: for Cholesterol Levels / Glucose Levels / Lipoprotein Levels HDL / Lipoprotein Levels LDL / Lipoprotein Levels VLDL: ApoE knockout mice, high fat diet, six weeks; for Liver Enzyme Levels ALT / Liver Enzyme Levels AST: mouse, in vivo, ip
Text: Female ApoE knockout mice ranged in age from 5 to 7 weeks and were placed on a normal diet for 2 weeks before study initiation. ApoE knockout mice were then fed ad libitum a 60% fat diet, with 0.15% added cholesterol to induce dyslipidemia and obesity. Control animals were maintained on a high-fat diet with no added cholesterol. […]
At study termination and forty eight hours after the final injections, animals were sacrificed and evaluated for target mRNA levels in liver by RT-PCR methods verified by Northern Blot analysis, glucose levels, cholesterol and lipid levels by HPLC separation methods and triglyceride and liver enzyme levels (performed by LabCorp Preclinical Services; San Diego, Calif.).
Data are normalized to saline controls.

[2] = Evaluation of steatosis in high fat fed animals treated for 6 weeks, liver histology; type: in vivo, mouse; conditions: high fat fed C57BL/6 mice; 6 weeks of treatment
Text: Tissue resected from liver is immediately immersed in Tissue Tek OCT embedding compound (Ted Pella, Inc., Redding, Calif.) and frozen in a 2-methyl-butane dry ice slurry. Tissue sections are cut at a thickness of 4-5 μm and then fixed in 5% neutral-buffered formalin. Tissue sections are stained with hematoxylin and eosin following standard histological procedures to visualize nuclei and cytoplasm, respectively, and oil red 0 according to the manufacturer's instructions (Newcomers Supply, Middleton, Wis.) to visualize lipids.
Alternatively, tissues are fixed in 10% neutral-buffered formalin, embedded in paraffin, sectioned at a thickness of 4-5 μm, deparaffinized and stained with hematoxylin and eosin, all according to standard histological procedures.
Liver tissue from ISIS 147764 (SEQ ID NO: 109) and control-treated animals described in Example 21 was evaluated for steatosis at study termination following 6 weeks of treatment. Tissue sections were stained with oil red 0 and hematoxylin to visualize lipids and nuclei, respectively. Tissue sections were also stained with hematoxylin and eosin to visualize nuclei and cytoplasm, respectively.

[3] = tested on: human apolipoprotein B protein; assay: Apolipoprotein B protein in primary human hepatocytes, immunoblot; type: cell-based; conditions: 50, 150 and 300 nM, 24 hours, 48 hours
Experimental: Protein samples from 50, 150 and 300 nM doses after 24 hours and 150 and 300 nM doses after 48 hours were subjected to immunoblot analysis as described by other examples herein, using a human apolipoprotein B protein specific antibody purchased from US Biological (Swampscott, Mass.).

[4] = Long-term study in lean Cynomolgous monkeys (Example 64): serum lipids by nuclear magnetic resonance spectroscopy; type: in vivo, Cynomolgous monkey; conditions: one month
Experimental: […] Saline-treated animals serve as controls. Each treatment group includes 2 to 3 animals of each sex.
The results from the one month interval of the long term treatment are shown in Table 50 and are normalized to saline-treated animals for mRNA and to untreated baseline values for lipid levels. Total cholesterol, LDL-cholesterol, HDL-cholesterol, LDL particle concentration and triglyceride levels in serum were measured by nuclear magnetic resonance spectroscopy by Liposcience (Raleigh, N.C.). Additionally, the concentration of intact oligonucleotide in liver was measured by capillary gel electrophoresis and is presented as micrograms of oligonucleotide per gram of liver tissue. Each result represents the average of data from 4 animals (2 males and 2 females).

[5] = Long-term study in lean Cynomolgous monkeys (Example 64): toxicity (steatosis, APTT, histology, kidney); type: in vivo, Cynomolgous monkey
Experimental: Male and female Cynomologous monkeys are treated with 2, 4 or 12 mg/kg of ISIS 301012 intravenously or 2 or 20 mg/kg subcutaneously at a frequency of every two days for the first week, and every 4 days thereafter, for 1 and 3 month treatment periods. Saline-treated animals serve as controls. Each treatment group includes 2 to 3 animals of each sex.
At a one month interval and at the 3 month study termination, the animals are sacrificed and evaluated for target expression in liver, lipid levels in serum and indicators of toxicity. Liver samples are procured, RNA is isolated and apolipoprotein B mRNA expression is measured by real-time PCR as described in other examples herein. Serum lipids, including total cholesterol, LDL-cholesterol, HDL-cholesterol and triglycerides, are evaluated by routine clinical analysis using an Olympus Clinical Analyzer (Olympus America Inc., Melville, N.Y.). Ratios of LDL-cholesterol to HDL-cholesterol and total cholesterol to HDL-cholesterol are also calculated. Analyses of serum ALT and AST, inflammatory infiltrates in tissue and basophilic granules in tissue provide an assessment of toxicities related to the treatment. Hepatic steatosis, or accumulation of lipids in the liver, is assessed by routine histological analysis with oil red 0 stain and measurement of liver tissue triglycerides using a Triglyceride GPO Assay (Sigma-Aldrich, St. Louis, Mo.).
Hepatic steatosis, or accumulation of lipids in the liver, was not observed following 4 weeks of treatment with the doses indicated.

GTCCCTGAAGATGTCAATGC (2'-MOE gapmer, further chemistry not given here) [ISIS 147764]
Cholesterol Levels ([1]; 5 mg/kg i.p. every three days): 1630 mg/dL | Glucose Levels ([1]; 5 mg/kg i.p. every three days): 195 mg/dL | Lipoprotein Levels HDL ([1]; 5 mg/kg i.p. every three days): 49 mg/dL | Lipoprotein Levels LDL ([1]; 5 mg/kg i.p. every three days): 475 mg/dL | Lipoprotein Levels VLDL ([1]; 5 mg/kg i.p. every three days): 1111 mg/dL | Cholesterol Levels ([1]; 25 mg/kg i.p. every three days): 1750 mg/dL | Glucose Levels ([1]; 25 mg/kg i.p. every three days): 209 mg/dL | Lipoprotein Levels HDL ([1]; 25 mg/kg i.p. every three days): 62 mg/dL | Lipoprotein Levels LDL ([1]; 25 mg/kg i.p. every three days): 500 mg/dL | Lipoprotein Levels VLDL ([1]; 25 mg/kg i.p. every three days): 1194 mg/dL | Cholesterol Levels ([1]; 50 mg/kg i.p. every three days): 1490 mg/dL | Glucose Levels ([1]; 50 mg/kg i.p. every three days): 191 mg/dL | Lipoprotein Levels HDL ([1]; 50 mg/kg i.p. every three days): 61 mg/dL | Lipoprotein Levels LDL ([1]; 50 mg/kg i.p. every three days): 325 mg/dL | Lipoprotein Levels VLDL ([1]; 50 mg/kg i.p. every three days): 1113 mg/dL | Liver Enzyme Levels ALT ([1]; 5 mg/kg): 48 IU/L | Liver Enzyme Levels AST ([1]; 5 mg/kg): 50 IU/L | Liver Enzyme Levels ALT ([1]; 25 mg/kg): 59 IU/L | Liver Enzyme Levels AST ([1]; 25 mg/kg): 60 IU/L | Liver Enzyme Levels ALT ([1]; 50 mg/kg): 87 IU/L | Liver Enzyme Levels AST ([1]; 50 mg/kg): 85 IU/L | steatosis vs saline treated animals (histology) [2]: no difference in steatosis

ISIS 301012: SEQ ID NO: 247, antisense oligonucleotide targeted to human apolipoprotein B (antisense GCCTCAGTCTGCTTCGCACC; chemistry not given here)
apolipoprotein B protein in human hepatocytes (immunoblot) [3]: reduced in a dose-dependent manner | HDL-cholesterol, % change normalized to untreated baseline value ([4]; intravenous 2 mg/kg): −23% | LDL Particle concentration, % change normalized to untreated baseline value ([4]; intravenous 2 mg/kg): +8% | LDL-cholesterol, % change normalized to untreated baseline value ([4]; intravenous 2 mg/kg): +15% | LDL/HDL, % change normalized to untreated baseline value ([4]; intravenous 2 mg/kg): +94% | Total cholesterol, % change normalized to untreated baseline value ([4]; intravenous 2 mg/kg): −6% | Total cholesterol/HDL, % change normalized to untreated baseline value ([4]; intravenous 2 mg/kg): +44% | Triglyceride, % change normalized to untreated baseline value ([4]; intravenous 2 mg/kg): +26% | HDL-cholesterol, % change normalized to untreated baseline value ([4]; intravenous 4 mg/kg): −15% | LDL Particle concentration, % change normalized to untreated baseline value ([4]; intravenous 4 mg/kg): +8% | LDL-cholesterol, % change normalized to untreated baseline value ([4]; intravenous 4 mg/kg): +9% | LDL/HDL, % change normalized to untreated baseline value ([4]; intravenous 4 mg/kg): +38% | Total cholesterol, % change normalized to untreated baseline value ([4]; intravenous 4 mg/kg): −2% | Total cholesterol/HDL, % change normalized to untreated baseline value ([4]; intravenous 4 mg/kg): +22% | Triglyceride, % change normalized to untreated baseline value ([4]; intravenous 4 mg/kg): +32% | HDL-cholesterol, % change normalized to untreated baseline value ([4]; intravenous 12 mg/kg): −8% | LDL Particle concentration, % change normalized to untreated baseline value ([4]; intravenous 12 mg/kg): −11% | LDL-cholesterol, % change normalized to untreated baseline value ([4]; intravenous 12 mg/kg): +3% | LDL/HDL, % change normalized to untreated baseline value ([4]; intravenous 12 mg/kg): +44% | Total cholesterol, % change normalized to untreated baseline value ([4]; intravenous 12 mg/kg): −2% | Total cholesterol/HDL, % change normalized to untreated baseline value ([4]; intravenous 12 mg/kg): +21% | Triglyceride, % change normalized to untreated baseline value ([4]; intravenous 12 mg/kg): +15% | HDL-cholesterol, % change normalized to untreated baseline value ([4]; subcutaneous 3.5 mg/kg): +13% | LDL Particle concentration, % change normalized to untreated baseline value ([4]; subcutaneous 3.5 mg/kg): −14% | LDL-cholesterol, % change normalized to untreated baseline value ([4]; subcutaneous 3.5 mg/kg): −4% | LDL/HDL, % change normalized to untreated baseline value ([4]; subcutaneous 3.5 mg/kg): −15% | Total cholesterol, % change normalized to untreated baseline value ([4]; subcutaneous 3.5 mg/kg): +5% | Total cholesterol/HDL, % change normalized to untreated baseline value ([4]; subcutaneous 3.5 mg/kg): −7% | Triglyceride, % change normalized to untreated baseline value ([4]; subcutaneous 3.5 mg/kg): +1% | HDL-cholesterol, % change normalized to untreated baseline value ([4]; subcutaneous 20 mg/kg): +5% | LDL Particle concentration, % change normalized to untreated baseline value ([4]; subcutaneous 20 mg/kg): −21% | LDL-cholesterol, % change normalized to untreated baseline value ([4]; subcutaneous 20 mg/kg): −16% | LDL/HDL, % change normalized to untreated baseline value ([4]; subcutaneous 20 mg/kg): −19% | Total cholesterol, % change normalized to untreated baseline value ([4]; subcutaneous 20 mg/kg): −5% | Total cholesterol/HDL, % change normalized to untreated baseline value ([4]; subcutaneous 20 mg/kg): −10% | Triglyceride, % change normalized to untreated baseline value ([4]; subcutaneous 20 mg/kg): −3% | functional changes in kidney [5]: No functional changes | Hepatic steatosis ([5]; 4 weeks of treatment): not observed | dose-related histological findings ([5]; 12 and 20 mg/kg): basophilic granules in the liver and kidney | transient increase in activated partial thromboplastin time (APTT) ([5]; 12 and 20 mg/kg, during the first 4 hours): 1.2-1.3 fold
